Test results reported in patent US20060094691A1, “Inclusion complexes of rosiglitazone” (priority 2002, published 2006).

Assay: Intrinsic Dissolution Rate (IDR) at pH 6.8 of the cyclodextrin complexes (Sotax intrinsic dissolution assembly, USP<1087>)
Assay type: physicochemical
Conditions: 100 rpm
Method: Data: Intrinsic Dissolution Rate (IDR) at pH 6.8 of the Cyclodextrin Complexes
The intrinsic dissolution rate was measured with a Sotax intrinsic dissolution assembly according to the procedure described in USP<1087>. The 8 mm diameter disc was formed from approximately 150 mg of cyclodextrin complex and compressed at a force of 5 tons for 30 seconds using a benchtop hydraulic press. The dissolution media was 1000 mL of water containing 31.6 mL of 1 M hydrochloric acid solution and 2.0 g of sodium chloride, which was adjusted to pH 6.8 with Tris/Acetate buffer, the dissolution volume was 900 mL at 37° C. and the rotating speed was 100 rpm. Detection was performed by flow through UV sampling every 2 minutes for 1 hour at 245 nm with a 1 cm path length.

CN(CCOc1ccc(CC2SC(=O)NC2=O)cc1)c1ccccn1.O=C(O)/C=C\C(=O)O (centres unmarked) [Maleate salt of Compound 1, 5-[4-[2-(N-methyl-N-(2-pyridyl)amino)ethoxy]benzyl]thiazolidine-2,4-dione, maleate salt]
IDR relative to the Maleate salt of Compound 1 (pH 6.8, 37° C., ratio to the maleate salt): 1
IDR (pH 6.8 dissolution media, 900 mL, 37° C., 8 mm disc, UV 245 nm): 0.057 mg/min/cm^2
